Consider 22 molecules from patent publication US20250312352A1, “GLP-1R MODULATING COMPOUNDS” (Gilead Sciences, Inc., priority 2021, published 2025).

The test deals with T1, GLP-1R (Homo sapiens, UniProt P43220).
T1 construct: host or cells: CHO cells
Kind of test: GLP-1R activation cAMP assay (Assay 1 or Assay 2). The settings on record: cAMP increase in CHO cells stably expressing GLP-1R; compounds run on one of the two cAMP assays. It counts as cell-based. Put shortly: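 EC50 values come from a sigmoidal fit of HTRF-detected cAMP rise versus log agonist concentration. GLP-1R-expressing CHO cells, equilibrated 1 h at 37 °C in HBSS with HEPES and BSA, received a 10-point compound dose series for 30 min before detection.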

T1 sequence (P43220 24-463): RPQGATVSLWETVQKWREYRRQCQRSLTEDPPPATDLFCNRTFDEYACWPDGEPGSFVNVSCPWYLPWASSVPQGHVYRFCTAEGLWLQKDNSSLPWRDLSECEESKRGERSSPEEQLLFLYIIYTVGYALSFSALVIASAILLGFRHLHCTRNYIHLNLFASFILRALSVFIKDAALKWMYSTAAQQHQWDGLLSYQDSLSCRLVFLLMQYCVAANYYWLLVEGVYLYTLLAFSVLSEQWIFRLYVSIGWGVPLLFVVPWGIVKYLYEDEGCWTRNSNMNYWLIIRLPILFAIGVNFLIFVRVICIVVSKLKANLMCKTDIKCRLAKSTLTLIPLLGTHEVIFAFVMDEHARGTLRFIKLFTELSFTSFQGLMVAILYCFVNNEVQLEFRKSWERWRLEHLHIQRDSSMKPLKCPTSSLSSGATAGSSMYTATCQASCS

`CNC(=O)c1cc(Cl)c(COc2cccc(-c3ccc(Cc4nc5ccc(C(=O)O)cc5n4CC4(CF)CC4)c(F)c3)n2)cn1` [Example 402, 2-(4-(6-((4-chloro-6-(methylcarbamoyl)pyridin-3-yl)methoxy)pyridin-2-yl)-2-fluorobenzyl)-1-((1-(fluoromethyl)cyclopropyl)methyl)-1H-benzo[d]imidazole-6-carboxylic acid] returned an EC50 of 208 pM.

On to `O=C(O)c1ccc2nc(Cc3cc(F)c(-c4cccc(OCc5ccc(C#Cc6cnc(Cl)nc6)cc5)n4)cc3F)n(C[C@@H]3CCO3)c2c1` [Example 403, (S)-2-(4-(6-((4-((2-chloropyrimidin-5-yl)ethynyl)benzyl)oxy)pyridin-2-yl)-2,5-difluorobenzyl)-1-(oxetan-2-ylmethyl)-1H-benzo[d]imidazole-6-carboxylic acid], for which the EC50 was 96 pM.

The molecule `N#Cc1ccc(C#Cc2cnc(COc3cccc(-c4cc(F)c(Cc5nc6ccc(C(=O)O)cc6n5C[C@@H]5CCO5)cc4F)n3)nc2)cc1` [Example 404, (S)-2-(4-(6-((5-((4-cyanophenyl)ethynyl)pyrimidin-2-yl)methoxy)pyridin-2-yl)-2,5-difluorobenzyl)-1-(oxetan-2-ylmethyl)-1H-benzo[d]imidazole-6-carboxylic acid] had an EC50 of 689 pM.

Consider `O=C(O)c1ccc2nc(Cc3cc(F)c(-c4cccc(OCc5ccc(C#Cc6cncnc6)cc5)n4)cc3F)n(C[C@@H]3CCO3)c2c1` [Example 405, (S)-2-(2,5-difluoro-4-(6-((4-(pyrimidin-5-ylethynyl)benzyl)oxy)pyridin-2-yl)benzyl)-1-(oxetan-2-ylmethyl)-1H-benzo[d]imidazole-6-carboxylic acid], for which it took 363 pM to reach a half-maximal effect (EC50).

Consider `O=C(O)c1ccc2nc(Cc3cc(F)c(-c4ccc(F)c(OCc5ncc(C(F)F)s5)n4)cc3F)n(C[C@@H]3CCO3)c2c1` [Example 406, (S)-2-(4-(6-((5-(difluoromethyl)thiazol-2-yl)methoxy)-5-fluoropyridin-2-yl)-2,5-difluorobenzyl)-1-(oxetan-2-ylmethyl)-1H-benzo[d]imidazole-6-carboxylic acid], for which it took 385 pM to reach a half-maximal effect (EC50).

`O=C(O)c1cc(F)c2nc(Cc3cc(F)c(-c4ccc(F)c(OCc5ncc(C(F)F)s5)n4)cc3F)n(C[C@@H]3CCO3)c2c1` [Example 407, (S)-2-(4-(6-((5-(difluoromethyl)thiazol-2-yl)methoxy)-5-fluoropyridin-2-yl)-2,5-difluorobenzyl)-4-fluoro-1-(oxetan-2-ylmethyl)-1H-benzo[d]imidazole-6-carboxylic acid]: the EC50 came to 239 pM.

`O=C(O)c1cc(F)c2nc(Cc3cc(F)c(-c4ccnc(OCc5ncc(C(F)(F)F)s5)n4)cc3F)n(C[C@@H]3CCO3)c2c1` [Example 408, (S)-2-(2,5-difluoro-4-(2-((5-(trifluoromethyl)thiazol-2-yl)methoxy)pyrimidin-4-yl)benzyl)-4-fluoro-1-(oxetan-2-ylmethyl)-1H-benzo[d]imidazole-6-carboxylic acid] yielded an EC50 of 381 pM.

Turning to `C[C@H]1COC[C@H]1n1c(Cc2cc(F)c(-c3ccc(F)c(OCc4ncc(C(F)(F)F)s4)n3)cc2F)nc2ccc(C(=O)O)cc21` [Example 409, 2-(2,5-difluoro-4-(5-fluoro-6-((5-(trifluoromethyl)thiazol-2-yl)methoxy)pyridin-2-yl)benzyl)-1-((3S,4R)-4-methyltetrahydrofuran-3-yl)-1H-benzo[d]imidazole-6-carboxylic acid], the response was half-maximal at 695 pM (EC50).

Turning to `COc1nnc(COc2nc(-c3cc(F)c(Cc4nc5c(F)cc(C(=O)O)cc5n4CC4(CF)CC4)cc3F)ccc2F)s1` [Example 410, 2-(2,5-difluoro-4-(5-fluoro-6-((5-methoxy-1,3,4-thiadiazol-2-yl)methoxy)pyridin-2-yl)benzyl)-4-fluoro-1-((1-(fluoromethyl)cyclopropyl)methyl)-1H-benzo[d]imidazole-6-carboxylic acid], a half-maximal effect (EC50) was put at 551 pM.

Molecule `COc1nnc(COc2cccc(-c3cc(F)c(Cc4nc5c(F)cc(C(=O)O)cc5n4CC4(CF)CC4)cc3F)n2)s1` [Example 411, 2-(2,5-difluoro-4-(6-((5-methoxy-1,3,4-thiadiazol-2-yl)methoxy)pyridin-2-yl)benzyl)-4-fluoro-1-((1-(fluoromethyl)cyclopropyl)methyl)-1H-benzo[d]imidazole-6-carboxylic acid] yielded an EC50 of 315 pM. This EC50 is about 1.7-fold lower than that of the molecule before.

The molecule `O=C(O)c1cc(F)c2nc(Cc3cc(F)c(-c4cccc(OCc5ncc(C(F)(F)F)s5)n4)cc3F)n(CC3(CF)CC3)c2c1` [Example 412, 2-(2,5-difluoro-4-(6-((5-(trifluoromethyl)thiazol-2-yl)methoxy)pyridin-2-yl)benzyl)-4-fluoro-1-((1-(fluoromethyl)cyclopropyl)methyl)-1H-benzo[d]imidazole-6-carboxylic acid] returned an EC50 of 99 pM. This EC50 lies about 3.2-fold lower than the previous one.

`CC1(C)COC[C@H]1n1c(Cc2cc(F)c(-c3cccc(OCc4ncc(C(F)(F)F)s4)n3)cc2F)nc2ccc(C(=O)O)cc21` [Example 414, (S)-2-(2,5-difluoro-4-(6-((5-(trifluoromethyl)thiazol-2-yl)methoxy)pyridin-2-yl)benzyl)-1-(4,4-dimethyltetrahydrofuran-3-yl)-1H-benzo[d]imidazole-6-carboxylic acid] came in with an EC50 of 318 pM.

For the molecule `CC1(C)COC[C@H]1n1c(Cc2cc(F)c(-c3ccc(F)c(OCc4ncc(C(F)(F)F)s4)n3)cc2F)nc2ccc(C(=O)O)cc21` [Example 415, (S)-2-(2,5-difluoro-4-(5-fluoro-6-((5-(trifluoromethyl)thiazol-2-yl)methoxy)pyridin-2-yl)benzyl)-1-(4,4-dimethyltetrahydrofuran-3-yl)-1H-benzo[d]imidazole-6-carboxylic acid], a half-maximal effect (EC50) was put at 189 pM.

As for `CC1(C)COC[C@H]1n1c(Cc2cc(F)c(-c3ccc(F)c(OCc4ncc(C(F)F)s4)n3)cc2F)nc2ccc(C(=O)O)cc21` [Example 416, (S)-2-(4-(6-((5-(difluoromethyl)thiazol-2-yl)methoxy)-5-fluoropyridin-2-yl)-2,5-difluorobenzyl)-1-(4,4-dimethyltetrahydrofuran-3-yl)-1H-benzo[d]imidazole-6-carboxylic acid], the EC50 was found to be 336 pM.

`CNC(=O)c1cc(Cl)c(COc2cccc(-c3cc(F)c(Cc4nc5c(F)cc(C(=O)O)cc5n4CC4(CF)CC4)cc3F)n2)cn1` [Example 417, 2-(4-(6-((4-chloro-6-(methylcarbamoyl)pyridin-3-yl)methoxy)pyridin-2-yl)-2,5-difluorobenzyl)-4-fluoro-1-((1-(fluoromethyl)cyclopropyl)methyl)-1H-benzo[d]imidazole-6-carboxylic acid] showed an EC50 of 260 pM.

Molecule `CC1(C)COC[C@H]1n1c(Cc2cc(F)c(-c3ccnc(OCc4ccc(Cl)s4)n3)cc2F)nc2ccc(C(=O)O)cc21` [Example 418, (S)-2-(4-(2-((5-chlorothiophen-2-yl)methoxy)pyrimidin-4-yl)-2,5-difluorobenzyl)-1-(4,4-dimethyltetrahydrofuran-3-yl)-1H-benzo[d]imidazole-6-carboxylic acid] showed an EC50 of 384 pM.

`CC1(C)COC[C@H]1n1c(Cc2cc(F)c(-c3cccc(OCc4sc(C#N)cc4F)n3)cc2F)nc2ccc(C(=O)O)cc21` [Example 419, (S)-2-(4-(6-((5-cyano-3-fluorothiophen-2-yl)methoxy)pyridin-2-yl)-2,5-difluorobenzyl)-1-(4,4-dimethyltetrahydrofuran-3-yl)-1H-benzo[d]imidazole-6-carboxylic acid] came in with an EC50 of 96 pM.

Turning to `CCOc1nnc(COc2nc(-c3cc(Cl)c(Cc4nc5ccc(C(=O)O)cc5n4[C@@H]4COCC4(C)C)cc3C)ccc2F)s1` [Example 420, (S)-2-(2-chloro-4-(6-((5-ethoxy-1,3,4-thiadiazol-2-yl)methoxy)-5-fluoropyridin-2-yl)-5-methylbenzyl)-1-(4,4-dimethyltetrahydrofuran-3-yl)-1H-benzo[d]imidazole-6-carboxylic acid], a half-maximal effect (EC50) was put at 178 pM. Against the preceding molecule, the EC50 is about 1.9-fold higher.

Regarding `CCOc1nnc(COc2nc(-c3cc(Cl)c(Cc4nc5c(F)cc(C(=O)O)cc5n4[C@@H]4COCC4(C)C)cc3C)ccc2F)s1` [Example 421, (S)-2-(2-chloro-4-(6-((5-ethoxy-1,3,4-thiadiazol-2-yl)methoxy)-5-fluoropyridin-2-yl)-5-methylbenzyl)-1-(4,4-dimethyltetrahydrofuran-3-yl)-4-fluoro-1H-benzo[d]imidazole-6-carboxylic acid], a half-maximal response (EC50) required 87 pM.

The molecule `CCOc1nnc(COc2nc(-c3cc(F)c(Cc4nc5c(F)cc(C(=O)O)cc5n4[C@@H]4COCC4(C)C)cc3C)ccc2F)s1` [Example 422, (S)-1-(4,4-dimethyltetrahydrofuran-3-yl)-2-(4-(6-((5-ethoxy-1,3,4-thiadiazol-2-yl)methoxy)-5-fluoropyridin-2-yl)-2-fluoro-5-methylbenzyl)-4-fluoro-1H-benzo[d]imidazole-6-carboxylic acid] yielded an EC50 of 66 pM.

Turning to `CCOc1nnc(COc2nc(-c3cc(F)c(Cc4nc5c(F)cc(C(=O)O)cc5n4[C@@H]4COCC4(C)C)cc3F)ccc2F)s1` [Example 423, (S)-1-(4,4-dimethyltetrahydrofuran-3-yl)-2-(4-(6-((5-ethoxy-1,3,4-thiadiazol-2-yl)methoxy)-5-fluoropyridin-2-yl)-2,5-difluorobenzyl)-4-fluoro-1H-benzo[d]imidazole-6-carboxylic acid], the EC50 was determined as 23 pM.

In turn, `CCOc1nnc(COc2nc(-c3cc(F)c(Cc4nc5ccc(C(=O)O)cc5n4[C@@H]4COCC4(C)C)cc3F)ccc2F)s1` [Example 424, (S)-1-(4,4-dimethyltetrahydrofuran-3-yl)-2-(4-(6-((5-ethoxy-1,3,4-thiadiazol-2-yl)methoxy)-5-fluoropyridin-2-yl)-2,5-difluorobenzyl)-1H-benzo[d]imidazole-6-carboxylic acid] gave an EC50 of 27 pM.
